In patent US20260216182A1, “PYRIDAZINE NLRP3 INHIBITOR COMPOUND, PHARMACEUTICAL COMPOSITION, AND PREPARATION METHOD THEREFOR AND USE THEREOF” (CHANGCHUN GENESCIENCE PHARMACEUTICAL CO., LTD., priority 2022, published 2026):

Biological target: T1, NLRP3 (Homo sapiens, UniProt Q96P20)
T1 construct: endogenous in cells; host or cells: THP-1 (human monocyte, PMA-differentiated, LPS-primed, nigericin-stimulated)
Test: IC50 of NLRP3 inhibitors in reducing IL-1β secretion by THP-1 cells (PMA, LPS, nigericin; ELISA)
Format: cell-based
Conditions: compound + nigericin 1 h
Method: Test Example 1 Experiment on Detection of IC50 of NLRP3 Inhibitors in Reducing the Level of IL-1β Secretion by THP-1 Cells
In this experiment, we use the human monocyte THP-1 to study the inhibitory activity of NLRP3 inhibitor on the secretion of IL-Iβ by cells. Human THP-1 cells are treated with crotonol-12-tetradecanoate-13-acetate (PMA) to differentiate into mature macrophage models. Then, according to the two stages of inflammasome formation in cells (assembly and activation), the cells are stimulated with lipopolysaccharide (LPS) and nigericin in turn, ultimately promoting the extracellular release of IL-1β by THP-1 cells. The first stage of inflammasome formation involves stimulating cells with LPS (lipopolysaccharide), an agonist of the Toll-like receptor TLR4, to activate the expression of the inflammasome-associated proteins NLRP3, caspase 1, and pro-IL-1β, a precursor of IL-1β. The second stage of inflammasome formation involves the addition of the potassium ion carrier nigericin, which causes a series of membrane potential changes in THP-1 cells, destroys the cell membrane structure, causes the efflux of cellular potassium ions, further stimulates the oligomerization of NLRP3 monomers to form NLRP3 oligomers, and begins to recruit ASC and pro-caspase-1 to assemble the NLRP3 inflammasome complex containing a large amount of pro-caspase-1. The pro-caspase-1 on the activated NLRP3 inflammasome is enzymatically self-activated to form a large amount of active caspase-1. The activated caspase-1 further enzymatically promotes the conversion of pro-IL-1β into mature IL-1β that can be secreted.
(1) Cell suspensions were collected. The cells were centrifuged at 1000 rpm for 4 min, the supernatant was discarded, the cells were resuspended with 1 mL of test medium, and then the cell culture medium was gently pipetted up and down with a pipette and its tip to break up the cell aggregates. After counting the cells, the THP-1 cells were resuspended with complete RPMI medium 1640 containing PMA and seeded into 96-well plates and cultured in a 37° C., 5% CO2 incubator for 72 h.
(2) The culture medium was taken out from each well with an automatic plate washer dispenser EL406 and each well was rinsed twice with PBS. To each well, 96 μL of RPMI 1640 medium containing LPS was added. The cells were cultured in a 37° C., 5% CO2 incubator for 4 h.
(3) To each well, 2 μL of the compound and 2 μL of nigericin sodium salt were added, and the final compound concentration selected was 5000 nM, 1000 nM, 200 nM, 40 nM, 8 nM, 1.6 nM, 0.32 nM, 0 nM, respectively. The cells were cultured in a 37° C., 5% CO2 incubator for 1 h.
(4) An appropriate amount of supernatant was taken out, diluted 100 times, and the content of IL-1β in the supernatant was detected using Human IL-1 beta Valukine ELISA kit.

T1 sequence (Q96P20 whole entry): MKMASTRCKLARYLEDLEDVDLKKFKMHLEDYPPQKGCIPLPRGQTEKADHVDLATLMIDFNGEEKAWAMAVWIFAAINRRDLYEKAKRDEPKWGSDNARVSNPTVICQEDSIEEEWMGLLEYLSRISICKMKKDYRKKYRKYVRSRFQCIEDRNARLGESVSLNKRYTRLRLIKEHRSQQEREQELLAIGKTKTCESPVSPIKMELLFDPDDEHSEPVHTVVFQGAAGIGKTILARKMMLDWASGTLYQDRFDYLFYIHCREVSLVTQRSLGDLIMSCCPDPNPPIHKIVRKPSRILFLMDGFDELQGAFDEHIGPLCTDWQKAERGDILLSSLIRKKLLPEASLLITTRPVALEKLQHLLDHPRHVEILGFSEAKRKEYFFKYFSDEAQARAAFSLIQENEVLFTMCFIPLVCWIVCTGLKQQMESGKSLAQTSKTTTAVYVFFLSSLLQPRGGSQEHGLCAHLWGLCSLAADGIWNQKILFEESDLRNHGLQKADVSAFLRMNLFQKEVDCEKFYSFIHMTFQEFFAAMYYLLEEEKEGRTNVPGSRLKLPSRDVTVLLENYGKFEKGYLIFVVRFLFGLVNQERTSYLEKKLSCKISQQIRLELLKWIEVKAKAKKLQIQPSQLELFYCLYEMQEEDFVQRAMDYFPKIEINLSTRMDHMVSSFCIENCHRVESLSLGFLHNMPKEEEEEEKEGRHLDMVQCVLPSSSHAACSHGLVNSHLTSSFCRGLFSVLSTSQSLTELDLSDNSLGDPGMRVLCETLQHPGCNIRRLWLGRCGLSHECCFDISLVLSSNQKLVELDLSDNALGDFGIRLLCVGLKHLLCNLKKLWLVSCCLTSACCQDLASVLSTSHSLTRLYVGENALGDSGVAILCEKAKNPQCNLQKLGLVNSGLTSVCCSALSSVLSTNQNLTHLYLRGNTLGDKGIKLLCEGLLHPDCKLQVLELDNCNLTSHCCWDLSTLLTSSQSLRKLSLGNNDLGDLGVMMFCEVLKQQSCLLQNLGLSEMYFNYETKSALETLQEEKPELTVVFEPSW

CC#Cc1ccc2c(-c3ccc(C(F)(F)F)cc3O)nnc(N[C@@H]3COCC[C@H]3O)c2c1 [Compound 067, (3R,4R)-3-((4-(2-hydroxy-4-(trifluoromethyl)phenyl)-7-(prop-1-yn-1-yl)phthalazin-1-yl)amino)tetrahydro-2H-pyran-4-ol]
IC50: 66 nM

CC#Cc1ccc2c(-c3ccc(C(F)(F)F)cc3O)nnc(N[C@@H]3CCCN(C)C3)c2c1 [Compound 068, (R)-2-(4-((1-methylpiperidin-3-yl)amino)-6-(prop-1-yn-1-yl)phthalazin-1-yl)-5-(trifluoromethyl)phenol]
IC50: 39 nM

CC#Cc1ccc2c(-c3ccc(C(F)(F)F)cc3O)nnc(NCC(C)(C)O)c2c1 [Compound 069, 2-(4-((2-hydroxy-2-methylpropyl)amino)-6-(prop-1-yn-1-yl)phthalazin-1-yl)-5-(trifluoromethyl)phenol]
IC50: 31 nM

CC#Cc1ccc2c(-c3ccc(C(F)(F)F)cc3O)nnc(N[C@@H]3CCC[C@H](O)C3)c2c1 [Compound 070]
IC50: 42 nM

CC#Cc1ccc2c(-c3c(O)cc(C(F)(F)F)cc3F)nnc(NC[C@H](C)O)c2c1 [Compound 071, 3-fluoro-2-(4-(((S)-2-hydroxypropyl)amino)-6-(prop-1-yn-1-yl)phthalazin-1-yl)-5-(trifluoromethyl)phenol]
IC50: 23 nM

CC#Cc1ccc2c(-c3ccc(Cl)cc3O)nnc(N[C@@H]3CC(=O)N(CCO)C3)c2c1 [Compound 073, (R)-4-((4-(4-chloro-2-hydroxyphenyl)-7-(prop-1-yn-1-yl)phthalazin-1-yl)amino)-1-(2-hydroxyethyl)pyrrolidin-2-one]
IC50: 51 nM

CC#Cc1ccc2c(-c3ccc(Cl)cc3O)nnc(N[C@@H]3CCN(CCO)C3=O)c2c1 [Compound 074, (R)-3-((4-(4-chloro-2-hydroxyphenyl)-7-(prop-1-yn-1-yl)phthalazin-1-yl)amino)-1-(2-hydroxyethyl)pyrrolidin-2-one]
IC50: 7.2 nM

CC#Cc1ccc2c(-c3ccc(Cl)cc3O)nnc(N[C@@H]3CCCN(CCO)C3=O)c2c1 [Compound 075, (R)-3-((4-(4-chloro-2-hydroxyphenyl)-7-(prop-1-yn-1-yl)phthalazin-1-yl)amino)-1-(2-hydroxyethyl) piperidin-2-one]
IC50: 7 nM

CC#Cc1ccc2c(-c3ccc(Cl)cc3O)nnc(N[C@@H]3CCC(=O)N(CCO)C3)c2c1 [Compound 076, (R)-5-((4-(4-chloro-2-hydroxyphenyl)-7-(prop-1-yn-1-yl)phthalazin-1-yl)amino)-1-(2-hydroxyethyl) piperidin-2-one]
IC50: 35 nM

Oc1cc(Cl)ccc1-c1nnc(N[C@@H]2CCCC(=C(F)F)C2)c2cnccc12 [Compound 080, (R)-5-chloro-2-(4-((3-(difluoromethylene)cyclohexyl)amino)pyridin[3,4-d]pyridazin-1-yl)phenol]
IC50: 36 nM
